Laboratory results as given in patent US20230312576A1, “4-(7H-PYRROLO[2,3-D]PYRIMIDIN-4-YL)-3,6-DIHYDROPYRIDINE-1-(2H)-CARBOXAMIDE DERIVATIVES AS LIMK AND/OR ROCK KINASES INHIBITORS FOR USE IN THE TREATMENT OF CANCER” (CENTRE NATIONAL DE LA RECHERCHE SCIENTIFIQUE, priority 2020, published 2023).
Where two headings read alike, the source gives them in different places.

How the values were obtained:
[1] = system: cofilin phosphorylation, HeLa cells; test: Cofilin phosphorylation by Western Blot (anti-phospho-Ser3-cofilin) in HeLa cells; format: cell-based; settings: Homo sapiens, 2 h
LIMK2 = LIMK2 (Homo sapiens (Human), UniProt P53671); test: Lanthascreen Eu binding assay (TR-FRET), inhibition of LIMK2
LIMK1 = LIMK1 (Homo sapiens (Human), UniProt P53667); test: Lanthascreen Eu binding assay (TR-FRET), inhibition of LIMK1
ROCK1 = ROCK1 (Homo sapiens (Human), UniProt Q13464); test: Z'Lyte assay, ROCK1 inhibition at a single concentration; format: biochemical
ROCK2 = ROCK2 (Homo sapiens (Human), UniProt O75116); test: Z'Lyte assay, ROCK2 inhibition at a single concentration; format: biochemical
[2] = HeLa, read-out: % inhibition Cofilin phosphorylation HeLa cells treated 2 h with 25 uM of inhibitor
[3] = HeLa, read-out: % inhibition of cofilin phosphorylation in HeLa cells (treatment 2 h, at 25 μM)
[4] = read-out: % inhibition (ROCK1) 1 uM
[5] = read-out: % inhibition (ROCK2) 1 uM
[6] = HeLa, read-out: % inhibition of cofilin phosphorylation in HeLa cells (treatment 2 h, at 25 μM), Table 2, normalized to the control condition DMSO
[7] = read-out: % inhibition Cofilin phosphorylation HeLa cells treated 2 h with 25 uM of inhibitor, HeLa cells, 25 uM
[8] = read-out: % inhibition (ROCK1) 1 uM, 1 uM
[9] = read-out: % inhibition (ROCK2) 1 uM, 1 uM

ROCK2, sequence (O75116 whole entry): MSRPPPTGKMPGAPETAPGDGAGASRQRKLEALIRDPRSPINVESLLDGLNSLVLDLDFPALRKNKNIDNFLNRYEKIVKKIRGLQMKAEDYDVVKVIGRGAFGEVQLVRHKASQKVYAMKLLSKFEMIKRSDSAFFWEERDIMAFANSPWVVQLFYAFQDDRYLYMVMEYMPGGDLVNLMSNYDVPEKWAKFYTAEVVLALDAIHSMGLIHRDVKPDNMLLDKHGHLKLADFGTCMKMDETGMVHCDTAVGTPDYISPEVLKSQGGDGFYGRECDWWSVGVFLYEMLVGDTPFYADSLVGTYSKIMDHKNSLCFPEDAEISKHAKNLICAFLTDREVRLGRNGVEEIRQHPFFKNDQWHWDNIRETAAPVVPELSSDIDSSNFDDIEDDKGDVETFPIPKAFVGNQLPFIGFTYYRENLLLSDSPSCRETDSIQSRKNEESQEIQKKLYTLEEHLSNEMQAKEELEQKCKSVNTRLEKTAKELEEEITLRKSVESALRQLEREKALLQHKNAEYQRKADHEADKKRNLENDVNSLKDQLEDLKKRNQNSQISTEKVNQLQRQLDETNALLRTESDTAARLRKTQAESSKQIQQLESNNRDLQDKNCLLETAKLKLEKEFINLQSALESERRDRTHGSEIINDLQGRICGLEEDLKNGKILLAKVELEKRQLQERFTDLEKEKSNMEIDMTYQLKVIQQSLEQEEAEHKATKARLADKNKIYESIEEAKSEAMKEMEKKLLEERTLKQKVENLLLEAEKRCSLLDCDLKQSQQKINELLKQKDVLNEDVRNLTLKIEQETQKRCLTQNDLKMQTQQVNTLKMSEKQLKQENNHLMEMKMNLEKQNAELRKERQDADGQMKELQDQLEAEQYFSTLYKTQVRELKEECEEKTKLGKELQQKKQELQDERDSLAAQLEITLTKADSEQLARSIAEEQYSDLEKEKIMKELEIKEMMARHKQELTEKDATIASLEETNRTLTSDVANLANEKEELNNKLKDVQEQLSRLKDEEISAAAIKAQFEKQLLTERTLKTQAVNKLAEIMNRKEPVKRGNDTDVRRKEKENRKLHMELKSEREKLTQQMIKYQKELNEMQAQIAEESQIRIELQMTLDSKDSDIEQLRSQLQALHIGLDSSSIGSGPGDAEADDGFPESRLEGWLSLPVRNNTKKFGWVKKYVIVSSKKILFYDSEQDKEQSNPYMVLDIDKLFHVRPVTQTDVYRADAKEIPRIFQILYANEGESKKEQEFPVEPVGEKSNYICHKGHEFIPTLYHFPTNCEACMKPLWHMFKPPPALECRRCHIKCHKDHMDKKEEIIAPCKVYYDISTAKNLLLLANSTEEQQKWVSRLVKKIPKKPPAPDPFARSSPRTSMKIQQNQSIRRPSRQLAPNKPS
LIMK1, sequence (P53667 whole entry): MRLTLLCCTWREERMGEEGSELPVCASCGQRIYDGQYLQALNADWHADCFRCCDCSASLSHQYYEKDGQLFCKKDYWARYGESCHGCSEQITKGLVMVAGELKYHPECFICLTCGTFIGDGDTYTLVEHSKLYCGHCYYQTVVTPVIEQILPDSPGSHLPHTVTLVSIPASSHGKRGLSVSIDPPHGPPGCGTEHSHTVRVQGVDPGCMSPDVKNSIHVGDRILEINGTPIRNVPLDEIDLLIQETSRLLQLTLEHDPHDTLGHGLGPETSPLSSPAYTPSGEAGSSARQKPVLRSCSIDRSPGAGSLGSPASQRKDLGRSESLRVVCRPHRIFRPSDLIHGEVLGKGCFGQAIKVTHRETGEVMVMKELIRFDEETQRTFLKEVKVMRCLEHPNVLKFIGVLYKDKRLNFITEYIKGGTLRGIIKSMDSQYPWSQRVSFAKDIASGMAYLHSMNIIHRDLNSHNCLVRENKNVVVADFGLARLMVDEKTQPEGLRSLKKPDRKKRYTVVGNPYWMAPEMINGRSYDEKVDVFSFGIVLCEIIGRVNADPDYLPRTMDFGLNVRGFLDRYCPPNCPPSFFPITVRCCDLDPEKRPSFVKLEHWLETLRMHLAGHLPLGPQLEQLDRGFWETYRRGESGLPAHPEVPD
ROCK1, sequence (Q13464 whole entry): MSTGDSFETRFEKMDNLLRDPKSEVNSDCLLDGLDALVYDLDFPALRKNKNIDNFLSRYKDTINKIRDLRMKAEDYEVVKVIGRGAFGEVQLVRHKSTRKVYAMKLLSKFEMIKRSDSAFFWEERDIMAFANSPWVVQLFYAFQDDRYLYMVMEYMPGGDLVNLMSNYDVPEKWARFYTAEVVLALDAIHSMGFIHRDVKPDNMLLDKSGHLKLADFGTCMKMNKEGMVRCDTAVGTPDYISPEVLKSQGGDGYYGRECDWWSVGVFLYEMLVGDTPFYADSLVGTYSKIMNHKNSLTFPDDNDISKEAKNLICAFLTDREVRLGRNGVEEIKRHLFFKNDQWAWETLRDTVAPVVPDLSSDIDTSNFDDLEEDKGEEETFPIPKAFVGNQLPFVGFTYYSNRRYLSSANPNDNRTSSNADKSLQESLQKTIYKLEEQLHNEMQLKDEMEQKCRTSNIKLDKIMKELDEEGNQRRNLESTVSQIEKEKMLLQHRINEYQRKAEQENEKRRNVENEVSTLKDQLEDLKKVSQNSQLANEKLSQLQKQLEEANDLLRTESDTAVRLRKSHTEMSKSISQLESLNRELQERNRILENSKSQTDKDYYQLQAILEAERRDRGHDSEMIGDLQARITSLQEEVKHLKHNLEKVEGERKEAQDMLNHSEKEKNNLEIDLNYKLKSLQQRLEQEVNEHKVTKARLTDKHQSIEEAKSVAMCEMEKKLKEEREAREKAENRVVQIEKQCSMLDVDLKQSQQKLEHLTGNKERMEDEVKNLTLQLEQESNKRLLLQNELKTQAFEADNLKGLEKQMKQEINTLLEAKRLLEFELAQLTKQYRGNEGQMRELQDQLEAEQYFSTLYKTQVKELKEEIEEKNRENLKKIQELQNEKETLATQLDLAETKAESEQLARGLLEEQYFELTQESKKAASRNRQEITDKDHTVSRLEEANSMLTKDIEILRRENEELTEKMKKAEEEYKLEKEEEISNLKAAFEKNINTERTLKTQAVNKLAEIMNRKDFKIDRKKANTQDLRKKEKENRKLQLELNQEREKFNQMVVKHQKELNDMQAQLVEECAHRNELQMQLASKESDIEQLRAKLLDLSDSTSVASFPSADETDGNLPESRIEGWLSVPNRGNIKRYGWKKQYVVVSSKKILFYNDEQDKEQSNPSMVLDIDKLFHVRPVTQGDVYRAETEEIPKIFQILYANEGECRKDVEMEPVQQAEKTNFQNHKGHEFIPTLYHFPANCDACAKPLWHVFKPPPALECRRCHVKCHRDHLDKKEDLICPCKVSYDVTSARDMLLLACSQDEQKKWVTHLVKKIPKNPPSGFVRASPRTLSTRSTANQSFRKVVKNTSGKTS
LIMK2, sequence (P53671 whole entry): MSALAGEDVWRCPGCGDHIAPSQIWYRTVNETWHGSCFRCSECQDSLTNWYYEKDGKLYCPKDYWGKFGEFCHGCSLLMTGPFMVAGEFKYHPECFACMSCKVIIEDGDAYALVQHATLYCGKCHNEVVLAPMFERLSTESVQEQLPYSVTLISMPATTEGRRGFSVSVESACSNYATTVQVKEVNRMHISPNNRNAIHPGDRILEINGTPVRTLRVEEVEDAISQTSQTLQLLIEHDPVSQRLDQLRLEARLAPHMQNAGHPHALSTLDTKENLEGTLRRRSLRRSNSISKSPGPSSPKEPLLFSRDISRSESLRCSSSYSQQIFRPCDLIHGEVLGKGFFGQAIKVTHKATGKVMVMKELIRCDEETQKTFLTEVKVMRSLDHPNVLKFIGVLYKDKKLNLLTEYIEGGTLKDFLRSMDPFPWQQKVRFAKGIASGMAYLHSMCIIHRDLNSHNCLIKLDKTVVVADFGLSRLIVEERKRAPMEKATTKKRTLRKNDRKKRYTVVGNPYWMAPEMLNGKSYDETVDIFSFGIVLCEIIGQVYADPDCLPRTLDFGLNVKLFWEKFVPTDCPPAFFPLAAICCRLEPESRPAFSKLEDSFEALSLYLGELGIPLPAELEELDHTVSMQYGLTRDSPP

Structure (SMILES)	inhibition at 25 µM [1, 2]	inhibition at 25 µM [1, 3]	Ki (LIMK2)	Ki (LIMK1)	inhibition at 1 µM (ROCK1; [4])	inhibition at 1 µM (ROCK2; [5])	inhibition at 25 µM [1, 6]	inhibition at 25 µM [1, 7]	Ki (LIMK2; Lanthascreen Eu binding assay)	Ki (LIMK1; Lanthascreen Eu binding assay)	inhibition at 1 µM (ROCK1; [8])	inhibition at 1 µM (ROCK2; [9])
O=C(Nc1cccc(Br)c1)N1CC=C(c2ncnc3[nH]c4c(c23)CCCCC4)CC1 [Compound 118, N-(3-Bromophenyl)-4-(5,6,7,8,9,10-hexahydrocyclohepta[4,5]pyrrolo[2,3-d]pyrimidin-4-yl)-3,6-dihydropyridine-1(2H)-carboxamide]	84.2%	84.2%	40.4 nM	14.7 nM	10%	-4%						
COc1cccc(Oc2cccc(NC(=O)N3CC=C(c4ncnc5[nH]cc(C6CC6)c45)CC3)c2)c1 [Compound 82, 4-(5-Cyclopropyl-7H-pyrrolo[2,3-d]pyrimidin-4-yl)-N-[3-(3-methoxyphenoxy)phenyl]-3,6-dihydropyridine-1(2H)-carboxamide]							82.7%	82.7%	20.3 nM	47.4 nM	16%	11%
CN(C)C(=O)Nc1cccc(NC(=O)N2CC=C(c3ncnc4[nH]c5c(c34)CCC5)CC2)c1 [Compound 131, N-[3-(Dimethylcarbamoylamino)phenyl]-4-(7,9,11-triaza-tricyclo[6.4.0.02,6]dodeca-1(8),2(6),9,11-tetraen-12-yl)-3,6-dihydropyridine-1(2H)-carboxamide]							82.9%	82.9%	8.73 nM	46.9 nM	14%	1%
O=C(Nc1cccc(N2CCOCC2)c1)N1CC=C(c2ncnc3[nH]c4c(c23)CCC4)CC1 [Compound 130, N-(3-morpholinophenyl)-4-(7,9,11-triazatricyclo[6.4.0.02,6]dodeca-1(8),2(6),9,11-tetraen-12-yl)-3,6-dihydropyridine-1(2H)-carboxamide]							79.2%	79.2%	87.5 nM	26.7 nM	26%	0%
O=C(Nc1cccc(Br)c1)N1CC=C(c2ncnc3[nH]c4c(c23)CCCC4)CC1 [Compound 115, N-(3-Bromophenyl)-4-(6,7,8,9-tetrahydro-5H-pyrimido[4,5-b]indol-4-yl)-3,6-dihydropyridine-1(2H)-carboxamide]	81.8%	81.8%	16.2 nM	5.37 nM	7%	11%						
O=C(Nc1ccccc1)N1CC=C(c2ncnc3[nH]c4c(c23)CCC4)CC1 [Compound 119, N-Phenyl-4-(5,6,7,8-tetrahydrocyclopenta[4,5]pyrrolo[2,3-d]pyrimidin-4-yl)-3,6-dihydropyridine-1(2H)-carboxamide]					0%	11%		64.1%	30.4 nM	7.98 nM		
CN(C)C(=O)c1cccc(NC(=O)N2CC=C(c3ncnc4[nH]c5c(c34)CCC5)CC2)c1 [Compound 134, N-[3-(Dimethylcarbamoyl)phenyl]-4-(7,9,11-triazatricyclo [6.4.0.02,6]dodeca-1(8),2(6),9,11-tetraen-12-yl)-3,6-dihydropyridine-1(2H)-carboxamide]							77.1%	77.1%	33.4 nM	36.1 nM	-20%	-5%
COCOCc1cccc(NC(=O)N2CC=C(c3ncnc4[nH]c5c(c34)CCC5)CC2)c1 [Compound 135, N-[3-(Methoxymethoxymethyl)phenyl]-4-(7,9,11-triaza-tricyclo[6.4.0.02,6]dodeca-1(8),2(6),9,11-tetraen-12-yl)-3,6-dihydropyridine-1(2H)-carboxamide]							85%	85%	36.2 nM	22.1 nM	-14%	-3%
